The record followed here is patent US10112955B2, “Isoindoline, azaisoindoline, dihydroindenone and dihydroazaindenone inhibitors of Mnk1 and Mnk2” (eFFECTOR THERAPEUTICS, INC., priority 2015, dated 2018).

The target of one assay is MNK2 (Homo sapiens (Human), UniProt Q9HBH9). Kind of assay: MNK Biochemical Enzymatic Assay (ADP-Glo), MNK2. To be noted: 3 nM recombinant MNK2, 50 μM substrate peptide, 10 μM ATP. How it is done: (§1) Compounds are screened for MNK inhibition using the ADP-Glo kinase assay kit (Promega, catalogue No. V9101). All kinase reactions are performed in Reaction Buffer E (15 mM HEPES pH7.4, 20 mM NaCl, 1 mM EGTA, 10 mM MgCl2, 0.1 mg/ml BGG, and 0.02% Tween-20). […] Final DMSO concentration in each reaction is 1%.
(§2) Kinase reactions are carried out in 96-well half-area white flat-bottom polystyrene plates in a final volume of 25 μl. MNK1/2 enzymes are pre-incubated with compound and peptide substrate for 5 minutes prior to the addition of ATP. After the addition of ATP, kinase reactions are incubated at room temperature for 40 minutes. Reactions are subsequently stopped by the addition of 25 μl of ADP-Glo Reagent and incubating for an additional 40 minutes. The final luminescent signal used for kinase activity readout is produced by the addition of 45 μl of Kinase Detection Reagent (ADP-Glo kit, Promega) and incubating for 40 minutes.

The next assay relates to Phosphorylated eIF4E. The assay can be described thus: peIF4E Signaling Cellular Assay (CisBio peIF4E HTRF). It counts as cell-based. To be noted: cells incubated with compound for 2 hrs at 37° C., 12-point curve. As to the method: Phosphorylated eIF4E is assayed using the CisBio peIF4E HTRF® assay kit (CisBio, catalogue No. 64EF4PEG). Cells are plated in 96-well tissue-culture treated plate in appropriate growth medium (90 μL). Compounds (10×) are diluted using 3-fold serial dilutions in cell culture medium and added to cells. Plates are incubated for 2 hrs at 37° C. The cell supernatant is carefully removed either by aspirating supernatant or by flicking the plate. Immediately 50 μL of supplemented lysis buffer (1×) is added and incubated for at least 30 minutes at room temperature under shaking. After homogenization by pipeting up and down, 16 μL of cell lysate is transferred from the 96-well cell-culture plate to a 384-well small volume white plate. 4 μL of premixed antibody solutions (vol/vol) is prepared in the detection buffer and added. The plate is covered with a plate sealer and incubated overnight at room temperature. The fluorescence emissions at two different wavelengths are read (665 nm and 620 nm) on a Wallac Victor2. Emission ratios are converted into percent inhibitions and imported into GraphPad Prism software. […] IC50 values are determined using a nonlinear regression model available in GraphPad Prism 5.
(In TR-FRET formats the signal depends on donor and acceptor labels being close together.)

A further assay addresses MNK1 (Homo sapiens (Human), UniProt Q9BUB5). The assay can be described thus: MNK Biochemical Enzymatic Assay (ADP-Glo), MNK1. To be noted: 10 nM recombinant MNK1, 100 μM substrate peptide, 300 μM ATP; read-out: IC50 Mnk1. As to the method:
as §1, §2
(In general: In ADP-Glo the light output rises with the ADP produced.)

Sequence of MNK2 (Q9HBH9 whole entry): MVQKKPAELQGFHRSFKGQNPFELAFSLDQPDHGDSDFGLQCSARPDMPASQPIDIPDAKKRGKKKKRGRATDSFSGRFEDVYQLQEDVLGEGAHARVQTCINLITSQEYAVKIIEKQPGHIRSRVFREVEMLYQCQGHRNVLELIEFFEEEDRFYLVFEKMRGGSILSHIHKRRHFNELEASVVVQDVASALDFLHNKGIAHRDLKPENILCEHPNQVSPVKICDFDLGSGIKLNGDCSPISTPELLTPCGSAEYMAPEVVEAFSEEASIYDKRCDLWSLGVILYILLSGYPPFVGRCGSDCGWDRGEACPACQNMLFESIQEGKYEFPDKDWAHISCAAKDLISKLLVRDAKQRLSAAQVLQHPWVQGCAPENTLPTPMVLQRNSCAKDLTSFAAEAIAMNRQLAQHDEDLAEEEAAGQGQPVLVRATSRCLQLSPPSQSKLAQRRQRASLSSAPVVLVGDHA
Sequence of MNK1 (Q9BUB5 whole entry): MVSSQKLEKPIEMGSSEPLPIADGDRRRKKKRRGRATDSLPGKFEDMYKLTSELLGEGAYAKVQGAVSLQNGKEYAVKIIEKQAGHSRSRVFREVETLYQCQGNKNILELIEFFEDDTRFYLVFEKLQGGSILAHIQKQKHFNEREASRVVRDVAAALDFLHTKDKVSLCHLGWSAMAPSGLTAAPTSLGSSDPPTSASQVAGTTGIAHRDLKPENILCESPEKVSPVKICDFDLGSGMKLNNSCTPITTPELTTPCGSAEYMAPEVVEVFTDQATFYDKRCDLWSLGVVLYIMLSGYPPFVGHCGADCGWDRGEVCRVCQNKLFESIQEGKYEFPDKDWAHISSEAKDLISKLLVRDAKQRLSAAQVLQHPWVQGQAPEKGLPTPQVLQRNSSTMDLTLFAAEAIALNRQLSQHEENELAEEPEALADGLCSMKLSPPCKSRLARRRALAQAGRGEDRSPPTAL

The term IC50 denotes the concentration that inhibits the measured activity by half. With `CC1Cc2cc(Nc3ccncn3)ccc2NC1=O` (centres unmarked) [Cpd. No. 21, 3-methyl-6-(pyrimidin-4-ylamino)-3,4-dihydroquinolin-2(1H)-one], on MNK2, the IC50 lay in the range of 100 to 10000 nM.
The same measure, in the same setting: as for `CSc1cc(Nc2ccc3c(c2)C(C)NC3=O)ncn1` (centres unmarked) [Cpd. No. 16, 3-methyl-5-((6-(methylthio)pyrimidin-4-yl)amino)isoindolin-1-one], the figure is 100 to 10000 nM.
In the case of `CC1(C)NC(=O)c2c(Cl)cc(Nc3ncnc(N)c3Cl)cc21` [Cpd. No. 50, 5-((6-amino-5-chloropyrimidin-4-yl)amino)-7-chloro-3,3-dimethylisoindolin-1-one], the IC50 was below 10 nM at MNK2 and below 50 nM in the assay with Phosphorylated eIF4E.
As for `NC1CC(=O)c2ccc(Nc3ccncn3)cc21` (centres unmarked) [Cpd. No. 28, 3-amino-5-(pyrimidin-4-ylamino)-2,3-dihydro-1H-inden-1-one], at MNK2, the IC50 fell in the range of 100 to 10000 nM.
Take `CC1(C)NC(=O)c2ccc(Nc3cc(N)ncn3)c(Cl)c21` [Cpd. No. 52, 5-((6-aminopyrimidin-4-yl)amino)-4-chloro-3,3-dimethylisoindolin-1-one]: the IC50 at MNK2 was below 10 nM; in the assay on Phosphorylated eIF4E, 1000 to 100000 nM.
For `O=C1NC2(CCCCC2)c2cc(Nc3ccncn3)cc(Cl)c21` [Cpd. No. 46, 4′-chloro-6′-(pyrimidin-4-ylamino)spiro[cyclohexane-1,1′-isoindolin]-3′-one], in that order: below 10 nM and below 50 nM.
In the case of `CC1NC(=O)c2ccc(Nc3cc(NC(=O)C(C)(C)C)ncn3)cc21` (centres unmarked) [Cpd. No. 18, N-(6-((3-methyl-1-oxoisoindolin-5-yl)amino)pyrimidin-4-yl)pivalamide], on MNK2, the IC50 was in the range of 100 to 10000 nM.
On the same count and under the same terms, as for `CC1(N)CNC(=O)c2ccc(Nc3ccncn3)cc21` (centres unmarked) [Cpd. No. 32, 4-amino-4-methyl-6-(pyrimidin-4-ylamino)-3,4-dihydroisoquinolin-1(2H)-one], the figure is 100 to 10000 nM.
Turning to `Cc1cc(Nc2cc(N)ncn2)cc2c1C(=O)NC2(C)C` [Cpd. No. 44, 5-((6-aminopyrimidin-4-yl)amino)-3,3,7-trimethylisoindolin-1-one], the IC50 was below 10 nM at MNK2 and 50 to 1000 nM in the assay on Phosphorylated eIF4E.
Take `CC1c2cc(Nc3ccncn3)ccc2C(=O)N1C` (centres unmarked) [Cpd. No. 20, 2,3-dimethyl-5-(pyrimidin-4-ylamino)isoindolin-1-one]: the IC50 on MNK2 lay in the range of 100 to 10000 nM.
Regarding `Nc1cc(Nc2cc(Cl)c3c(c2)C2(CCCCC2)NC3=O)ncn1` [Cpd. No. 48, 6′-((6-aminopyrimidin-4-yl)amino)-4′-chlorospiro[cyclohexane-1,1′-isoindolin]-3′-one], the values for the IC50 at MNK2 and in the assay on Phosphorylated eIF4E were below 10 nM and below 50 nM, respectively.
For `CC1NC(=O)c2ccc(Nc3ncnc4c3CC(=O)N4)cc21` (centres unmarked) [Cpd. No. 41, 4-[(3-methyl-1-oxo-isoindolin-5-yl)amino]-5,7-dihydropyrrolo[2,3-d]pyrimidin-6-one], the IC50 on MNK2 lay within 100 to 10000 nM.
As to `CNc1cc(Nc2ccc3c(c2)C(C)NC3=O)ccn1` (centres unmarked) [Cpd. No. 25, 3-methyl-5-((2-(methylamino)pyridin-4-yl)amino) isoindolin-1-one], at MNK2, the IC50 lay within 100 to 10000 nM.
Turning to `O=C1CCc2cc(Nc3ccncn3)ccc21` [Cpd. No. 5, 5-(pyrimidin-4-ylamino)-2,3-dihydro-1H-inden-1-one], the IC50 on MNK1 lay within 100 to 10000 nM.
`CCc1c(N)ncnc1Nc1cc(C)c2c(c1)C1(CCCCC1)NC2=O` [Cpd. No. 53, 6′-((6-amino-5-ethylpyrimidin-4-yl)amino)-4′-methylspiro[cyclohexane-1,1′-isoindolin]-3′-one]: the IC50 at MNK2 was below 10 nM; in the assay with Phosphorylated eIF4E, 50 to 1000 nM.
Take `COc1cncnc1Nc1cc(C)c2c(c1)C1(CCCCC1)NC2=O` [Cpd. No. 54, 6′-((5-methoxypyrimidin-4-yl)amino)-4′-methylspiro[cyclohexane-1,1′-isoindolin]-3′-one]: the figures for the IC50 at MNK2 and in the assay on Phosphorylated eIF4E were below 10 nM and below 50 nM, respectively.
For `CCc1cncnc1Nc1cc(C)c2c(c1)C1(CCCCC1)NC2=O` [Cpd. No. 56, 6′-((5-ethylpyrimidin-4-yl)amino)-4′-methylspiro[cyclohexane-1,1′-isoindolin]-3′-one] the same measures were 10 to 100 nM and 50 to 1000 nM.
For `Cc1cc(Nc2cc(N)ncn2)cc2c1C(=O)NC21CCCC1` [Cpd. No. 47, 6′-((6-aminopyrimidin-4-yl)amino)-4′-methylspiro[cyclopentane-1,1′-isoindolin]-3′-one], in that order: below 10 nM and 50 to 1000 nM.
Turning to `O=c1[nH]sc2cc(Nc3ccncn3)ccc12` [Cpd. No. 27, 6-(pyrimidin-4-ylamino)benzo[d]isothiazol-3(2H)-one], on MNK2, the IC50 lay within 100 to 10000 nM.
As for `Nc1ncnc(Nc2cc(Cl)c3c(c2)C2(CCCCC2)NC3=O)c1Cl` [Cpd. No. 59, 6′-((6-amino-5-chloropyrimidin-4-yl)amino)-4′-chlorospiro[cyclohexane-1,1′-isoindolin]-3′-one], the IC50 is below 10 nM at MNK2 and below 50 nM in the assay on Phosphorylated eIF4E.
As for `Cc1cc(Nc2ncncc2C#N)cc2c1C(=O)NC21CCCCC1` [Cpd. No. 63, 4-((4′-methyl-3′-oxospiro[cyclohexane-1,1′-isoindolin]-6′-yl)amino)pyrimidine-5-carbonitrile], the IC50 with Phosphorylated eIF4E was 50 to 1000 nM.
`Cc1cc(Nc2ncnc(N)c2OC(F)F)cc2c1C(=O)NC21CCCCC1` [Cpd. No. 84, 6′-((6-amino-5-(difluoromethoxy)pyrimidin-4-yl)amino)-4′-methylspiro[cyclohexane-1,1′-isoindolin]-3′-one]: the IC50 in the assay with Phosphorylated eIF4E lay within 50 to 1000 nM.
On the same count and under the same terms, for `Cc1c(N)ncnc1Nc1cc(C(F)F)c2c(c1)C1(CCCCC1)NC2=O` [Cpd. No. 88, 6′-((6-amino-5-methylpyrimidin-4-yl)amino)-4′-(difluoromethyl)spiro[cyclohexane-1,1′-isoindolin]-3′-one] the value was 50 to 1000 nM.
In the case of `Cc1cc(Nc2cc(N)ncn2)cc2c1C(=O)NC21CCCCC1` [Cpd. No. 51, 6′-((6-aminopyrimidin-4-yl)amino)-4′-methylspiro[cyclohexane-1,1′-isoindolin]-3′-one], the IC50 at MNK2 is below 10 nM; in the assay with Phosphorylated eIF4E, below 50 nM.
On to `COc1cncnc1Nc1cc(C)c2c(c1)C1(CCN(CC(F)F)CC1)NC2=O` [Cpd. No. 65, 1′-(2,2-difluoroethyl)-6-((5-methoxypyrimidin-4-yl)amino)-4-methylspiro[isoindoline-1,4′-piperidin]-3-one], for which the IC50 in the assay on Phosphorylated eIF4E is 50 to 1000 nM.
The same measure, in the same setting: as for `Cc1cc(Nc2ncnc(N)c2OC(F)(F)F)cc2c1C(=O)NC21CCCCC1` [Cpd. No. 83, 6′-((6-amino-5-(trifluoromethoxy)pyrimidin-4-yl)amino)-4′-methylspiro[cyclohexane-1,1′-isoindolin]-3′-one], the figure is below 50 nM; as for `Cc1cc(Nc2ncncc2C(N)=O)cc2c1C(=O)NC21CCCCC1` [Cpd. No. 64, 4-((4′-methyl-3′-oxospiro[cyclohexane-1,1′-isoindolin]-6′-yl)amino)pyrimidine-5-carboxamide], 50 to 1000 nM.
`NC(=O)c1ccc2c(c1)ncn2-c1cc(N)ncn1` [Cpd. No. 49, 1-(6-aminopyrimidin-4-yl)-1H-benzo[d]imidazole-5-carboxamide]: the IC50 at MNK2 lay within 10 to 100 nM; in the assay with Phosphorylated eIF4E it was 1000 to 100000 nM.
Regarding `Cc1cc(Nc2ccc3c(c2)C(C)NC3=O)ncn1` (centres unmarked) [Cpd. No. 26, 3-methyl-5-((6-methylpyrimidin-4-yl)amino)isoindolin-1-one], the IC50 on MNK2 fell in the range of 100 to 10000 nM.
As for `Cc1cc(Nc2cc(N)ncn2)nc2c1C(=O)NC21CCCCC1` [Cpd. No. 70, 2′-((6-aminopyrimidin-4-yl)amino)-4′-methylspiro[cyclohexane-1,7′-pyrrolo[3,4-b]pyridin]-5′(6′H)-one], in the assay with Phosphorylated eIF4E, the IC50 is below 50 nM.
The same measure, in the same setting: as for `COc1c(Nc2ncnc(N)c2C)cc(C)c2c1C1(CCCCC1)NC2=O` [Cpd. No. 94, 6′-((6-amino-5-methylpyrimidin-4-yl)amino)-7′-methoxy-4′-methylspiro[cyclohexane-1,1′-isoindolin]-3′-one], the figure is 50 to 1000 nM.
Consider `CC1(N)CC(=O)c2ccc(Nc3ccncn3)cc21` (centres unmarked) [Cpd. No. 30, 3-amino-3-methyl-5-(pyrimidin-4-ylamino)-2,3-dihydro-1H-inden-1-one], for which the IC50 at MNK2 lay in the range of 100 to 10000 nM.
As for `O=C1NC2CC2c2cc(Nc3ccncn3)ccc21` (centres unmarked) [Cpd. No. 29, 6-(pyrimidin-4-ylamino)-1,1a,2,7b-tetrahydro-3H-cyclopropa[c]isoquinolin-3-one], the IC50 on MNK2 is 100 to 10000 nM; in the assay with Phosphorylated eIF4E, 1000 to 100000 nM.
`COc1cc(Nc2ncnc(N)c2C)cc2c1C(=O)NC21CCCCC1` [Cpd. No. 78, 6′-((6-amino-5-methylpyrimidin-4-yl)amino)-4′-methoxyspiro[cyclohexane-1,1′-isoindolin]-3′-one]: in the assay on Phosphorylated eIF4E, the IC50 is 1000 to 100000 nM.
